{
  "source": "patent US10520509B2",
  "about": "(Washington State University, priority 2016, dated 2019)",
  "key": {"HeLa cells [1]": {"tested_on": "HeLa cells", "test": "Fluorescence imaging of H2S and H2Sn with DDP probe in cells", "type": "cell-based", "conditions": "probe 20 μm 30 min", "description": "(§1) In another embodiment the DDP probes has been designed to visuals exogenous sulfur species in a living system. […] Additionally, the selectivity of the probes can be seen in FIG. 10. […] The probe (20 μm) was applied to the cells for 30 minutes, after which the extracellular probe was washed off and only a weak fluorescence was observed.\nThe cells were grown on glass-bottom culture dishes (Corning Inc.) in DMEM supplemented with 10% (v/v) FBS, penicillin (100 U/mL) and streptomycin (100 μg/mL) at 37° C. under a humidified atmosphere containing 5% CO2. Before use, the adherent cells were washed one time with FBS-free DMEM. […] After removal of excess probe and washed with PBS (pH 7.4), the cells were incubated with 30 μM Na2S2 or 30 μM Na2S4 at room temperature for 20 min in PBS buffer (pH 7.4, containing 100 μM CTAB). Cell imaging was carried out after removal of the culture solution. For images of CSE-overexpressed COS7 cells."}, "HeLa cells [2]": {"tested_on": "HeLa cells", "test": "Cell viability assay (CCK-8) of DDP probe", "type": "cell-based", "conditions": "10-100 μM, 6 h", "description": "as §1\nHeLa cells were cultured in DMEM high glucose medium supplemented with 10% fetal bovine serum (FBS) at 37° C. under an atmosphere of 5% CO2 and 95% air. The cells were then inoculated in 96-well plates and cultured overnight. DDP-1 in FBS-free medium were administered and cultured for 6 h. The cell viability was measured by cell counter kit (CCK)-8. The absorbance at 450 nm was measured with a microplate reader. Optical density (OD) of the 9 wells in the indicated groups was used to calculate percentage of cell viability according to the formula below: Percentage of cell viability=OD treatment group/OD control group×100% Cell Culture and Fluorescence Imaging"}},
  "data": [
    {"molecule": "[N-]=[N+]=Nc1ccc2c(CC(=O)N3CCN(c4ccc5c(c4)Oc4cc(OC(=O)c6ccccc6SC(=O)c6ccccc6)ccc4C54OC(=O)c5ccccc54)CC3)cc(=O)oc2c1", "note": "(stereo not drawn) [DDP-1]", "values": [
      {"measurement": "fluorescence in cells after Na2S treatment", "setting": "HeLa cells [1]; Na2S 100 μm, blue and green channel", "value": "apparent fluorescence enhancement"},
      {"measurement": "fluorescence in cells after Na2S2 or in situ generated H2Sn", "setting": "HeLa cells [1]; blue vs green channel", "value": "blue channel decreased with a coinstantaneous increase in the green channel"},
      {"measurement": "cytotoxicity (cell viability)", "setting": "HeLa cells [2]", "value": "low cytotoxicity"}
    ]}
  ]
}
